According to US12485117B2, “Compositions and methods for activating signaling through the CB1 cannabinoid receptor for treating and preventing diseases and disorders characterized by abnormal cellular accumulation of sphingolipids such as sphingomyelin” (Wylder Nation Foundation, priority 2018, dated 2025):

How the values were obtained:
Assay type in all cases: cell-based, mouse
[1] = test system: cultured primary hippocampal neurons from ASMko mice; assay: Sphingomyelin levels by enzymatic assay in cultured primary hippocampal neurons from ASMko mice
Text: (§1) FIGS. 5A-5D show sphingomyelin and endocannabinoid levels in cultured primary hippocampal neurons and hippocampal tissue, respectively, from ASMko and wildtype mice.
Statistical significance Student's t-test, *P<0.05, **P<0.005, n=3 independent cultures.
Statistical significance Student's t-test, **P<0.005, n=3 independent cultures.
Anandamide (AEA) is the major endogenous CB1 ligand. We therefore tested whether increased levels of anandamide affected sphingomyelin levels in cultured primary hippocampal neurons from ASMko mice. Anandamide was increased in two ways: • 1. By incubating the neuronal cultures with exogenous anandamide; and • 2. By incubating the neuronal cultures with PF-04457845, which is an inhibitor of the anandamide hydrolytic enzyme FAAH. Inhibition of FAAH causes accumulation of anandamide by inhibiting FAAH-mediated hydrolyzation of anandamide.
The following experiments were performed in three independent cultures of hippocampal neurons derived from ASMko mice. Treatments were done at 11-13 days in vitro when these cells are considered mature and functional.
To set the optimal conditions for such hydrolysis in terms of concentration and time of incubation, anandamide was added to the culture medium of mature ASMko hippocampal neurons at 0, 5, 25, 50 and 100 μM for 30 minutes or 1 hour. […] The optimal conditions for SM degradation were in a range of concentration of 25-50 μM for 1 hour. […] We therefore decided to use 25 μM anandamide for 1-hour incubation time in our next experiments.
Similar to the anandamide dose/time response experiment above, we performed another dose response experiment using URB597 (URB), an inhibitor of the anandamide-hydrolyzing enzyme FAAH, to be used as reference for the other FAAH inhibitors. The experiments were done in the presence or absence of exogenous anandamide. URB was added to the culture medium of ASMko mature neurons at 0, 5, 25 and 50 μM for 1 hour with or without □□ μM anandamide.
We next compared URB efficacy to reduce SM levels with that of other FAAH inhibitors PF-04457845 (PF) and JNJ-1661010 (JNJ).

[2] = test system: wildtype cultured neurons; assay: Sphingomyelin levels in wildtype cultured neurons; conditions: wildtype (FIG. 5D)
Text: as §1
It has been shown that mGluR activation promotes 2-AG synthesis and CB1 stimulation (Maccarrone et al., Nat Neurosci 2008). We therefore sought to determine whether activation of mGluR5 with the allosteric activator CDPPB might induce sphingomyelin breakdown in ASMko neurons. […] Thus, the effect of decreased CB1 expression might be further exacerbated by decrease in endogenous endocannabinoid signaling, at least via 2-AG.

[3] = test system: permeabilized ASMko neurons; assay: Lysenin staining of SM in intracellular compartments of permeabilized ASMko neurons; conditions: 1 hour at 50 μM (FIG. 9)
Procedure: Statistical significance Student's t-test, *P<0.05, n=3 independent cultures.
To determine whether SM hydrolysis induced by FAAH inhibitors was taking place not only at the cell surface, but also in intracellular compartments, we performed staining with lysenin, a worm toxin that specifically binds to SM, in permeabilized ASMko neurons non-treated or treated with anandamide, URB, PF-04457845 or JNJ for 1 hour at 50 μM.

ASMko cultured neurons [4] = assay: MAP2 immunofluorescence of dendrites in ASMko cultured neurons; conditions: 50 μM for 1 hour
ASMko cultured neurons [5] = assay: TUNEL assay of neuronal death in ASMko cultured neurons; conditions: 50 μM for 1 hour
Procedure: FIG. 10B is a graph showing mean±SEM percentage of apoptotic cells, measured by TUNEL assay, with respect to the positive control in which the cells were treated with H202.
The percentage of dying neurons showing DNA fragmentation was 5-8% in the treated ASMko cultures similar to the non-treated ones.

N#Cc1cccc(C(=O)Nc2cc(-c3ccccc3)nn2-c2ccccc2)c1 [CDPPB, 3-Cyano-N-(1,3-diphenyl-1H-pyrazol-5-yl)benzamide]
sphingomyelin levels ([1]; 15 μM, ASMko cultured neurons (FIG. 5D)): significant decreases in sphingomyelin levels | sphingomyelin levels [2]: did not affect sphingomyelin levels

O=C(Nc1ccccc1)N1CCN(c2nc(-c3ccccc3)ns2)CC1 [JNJ-1661010]
SM hydrolysis ([1]; 50 μM and 1 hour (FIG. 8)): promoted SM hydrolysis | SM levels in intracellular compartments (lysenin staining) [3]: variable tendency to SM reduction that was not statistically significant | morphology, length, appearance of dendrites (MAP2) (ASMko cultured neurons [4]): did not alter the morphology, length or homogeneous appearance of dendrites | neuronal death as assessed by TUNEL (ASMko cultured neurons [5]): did not induce neuronal death

CCCCC/C=C\C/C=C\C/C=C\C/C=C\CCCC(=O)NCCO [anandamide]
SM hydrolysis, dose and time response ([1]; 0, 5, 25, 50 and 100 μM for 30 minutes or 1 hour (FIG. 6)): induced SM hydrolysis in a dose and time dependent manner | SM reduction at very high concentration ([1]; 100 μM): SM reduction was prevented | optimal concentration for SM degradation ([1]; 1 hour): 25 to 50 µM | sphingomyelin levels ([1]; ASMko neurons, 1 hour incubation (FIG. 5A)): reduced sphingomyelin levels | effect of addition of exogenous anandamide on SM hydrolysis by FAAH inhibitors ([1]; FAAH inhibitors at 50 μM, 1 hour): did not further enhance SM hydrolysis | SM reduction with URB and anandamide versus URB alone ([1]; URB concentrations other than the lowest, 1 hour): SM reduction was similar | effect of anandamide addition on SM reduction by URB ([1]; lowest URB concentration, 1 hour): synergized the action of URB | SM levels in intracellular compartments (lysenin staining) [3]: variable tendency to SM reduction that was not statistically significant | morphology, length, appearance of dendrites (MAP2) (ASMko cultured neurons [4]): did not alter the morphology, length or homogeneous appearance of dendrites | neuronal death as assessed by TUNEL (ASMko cultured neurons [5]): did not induce neuronal death

NC(=O)c1cccc(-c2cccc(OC(=O)NC3CCCCC3)c2)c1 [URB597]
SM levels, dose response ([1]; 0, 5, 25 and 50 μM for 1 hour, without exogenous anandamide (FIG. 7)): dose dependent reduction of SM levels | SM hydrolysis ([1]; 50 μM and 1 hour (FIG. 8)): promoted SM hydrolysis | efficacy to reduce SM levels compared among FAAH inhibitors ([1]; 50 μM and 1 hour (FIG. 8)): most reliable and efficient | SM levels in intracellular compartments (lysenin staining) [3]: significantly reduced SM levels | morphology, length, appearance of dendrites (MAP2) (ASMko cultured neurons [4]): did not alter the morphology, length or homogeneous appearance of dendrites | neuronal death as assessed by TUNEL (ASMko cultured neurons [5]): did not induce neuronal death

Cl.Cl.O=C(/C=C/c1ccc(/C=C/C(=O)Nc2ccc(C3=NCCN3)cc2)cc1)Nc1ccc(C2=NCCN2)cc1 [GW4869]
effect of co-incubation with the neutral sphingomyelinase inhibitor on the sphingomyelin reduction by anandamide or PF-04457845 ([1]; ASMko neurons, 1 hour (FIG. 5A)): prevented
